pIC50: −log10 of the molar value.
What follows are compounds tested against Proprotein convertase subtilisin/kexin type 9 (Homo sapiens, UniProt Q8NBP7) (assay: Inhibition of human C-terminal V5 epitope tagged PCSK9 by luciferase reporter assay).

pIC50	SMILES
5.35	COc1ccc(CCC(=O)N(c2nccc3ccccc23)[C@@H]2CCCNC2)cc1
6.52	O=C(c1ccc(-n2nnc3ccccc32)cc1)N(c1ncccc1Cl)[C@@H]1CCCNC1
6.52	O=C(c1ccc(-c2cnn3cccnc23)cc1)N(c1ncccc1Cl)[C@@H]1CCCNC1 [US9227956, 2]

Reference: BindingDB's records for PubMed 33592144 (Merck, 2021)
